Structure (SMILES) | melting point [°C]
Cn1c(C(N)c2ccccc2)nc2ccccc21 (configuration not stated) | 110 to 112
Cc1nn2cnnc2c(C)c1CCC(=O)O | 253 to 255
O=C(O)c1cc(Cl)ccc1OCC(F)(F)F | 121 to 123
COc1cccc(Cn2c(N)nc3ccccc32)c1 | 145 to 147
NC(=O)C(N)C(N)=O | 171 to 173
CCOc1cc(C#N)cc(Br)c1O | 140 to 142
Nc1cc(-c2cc(Br)ccc2Cl)[nH]n1 | 158 to 160
Nc1nc(CCl)nc(Nc2ccc(F)cc2)n1 | 170 to 172
CS(=O)(=O)c1ccc(-c2csc(N)n2)cc1 | 260 to 262
N#CCc1nc(-c2ccc(C#N)cc2)cs1 | 177 to 179
O=C(O)c1ccc(OCC2CC2)cc1 | 254 to 256
Nc1nc(-c2cccc(F)c2)cs1 | 113 to 115
Nc1nnc(Cc2ccc(F)cc2)[nH]1 | 197 to 199
Cc1nc2c(cnn2C)c(=O)[nH]1 | 274 to 276
Nc1cccnc1Nc1ccccc1 | 135 to 137
O=C(CCl)NC(=O)Nc1ccccc1 | 161 to 163
Cc1ccc2oc(-c3nnc(S)n3N)cc2c1 | 228 to 230
O=C(CCl)NCCc1ccsc1 | 75 to 77
O=C(O)CN1C(=O)COc2ccc([N+](=O)[O-])cc21 | 200 to 202
Cc1cc(S(=O)(=O)N(C)C)cc(N)c1C | 178 to 180
COC(=O)c1ccc(Cl)nc1C | 30 to 32
CCC(C(=O)Nc1cccc(C(N)=S)c1)c1ccccc1 (configuration not stated) | 148 to 150
CCNC(=O)NCc1ccc(N)cc1 | 120 to 122
CN(CCO)C(=O)c1ccc(O)cc1 | 123 to 125

Structure (SMILES) | melting point [°C]
CN1CCN(Cc2cccc(N)c2)CC1 | 78 to 80
CCOc1cc2c(cc1C=O)OC(C)C2 (configuration not stated) | 74 to 78
ClCc1nnc(-c2c(Cl)cccc2Cl)o1 | 46 to 48
Cc1ccc(NC(=O)C(Cl)c2ccccc2)cc1Cl (configuration not stated) | 120 to 122
CCOC(=O)c1cnc2c(cnn2C)c1Cl | 83 to 85
CCN(CC)S(=O)(=O)c1ccc(N2CCN(C)CC2)c(N)c1 | 148 to 152
O=C(Cc1ccc(Br)cc1)Nc1ccccc1C(=O)O | 212 to 214
Cn1c(=O)oc2c(C(=O)O)cccc21 | 309 to 311
O=C(c1cccc(F)c1)c1cccc(Br)c1 | 65 to 67
O=C(O)CCC1NC(=O)N(c2ccc(Cl)cc2)C1=O (configuration not stated) | 212 to 214
CC(=O)c1ccc(N2CCNCC2)c(F)c1 | 104 to 106
OCc1ncc(-c2ccccc2)o1 | 117 to 119
COC(=O)c1ccc2c(c1)NCC(=O)N2 | 252 to 254
CC(C)(C)NS(=O)(=O)c1cc(N)c(F)cc1F | 109 to 111
CC(CO)CC(C)(C)N (configuration not stated) | 64 to 66
Sc1ccc(Cl)nn1 | 148 to 150
Cc1cccc2c(Cl)ncnc12 | 131 to 133
CC(=O)CC(=O)N1CCOCC1 | 68 to 70
OCc1ccc(OCc2cccs2)cc1 | 68 to 70
CNC1CC(=O)N(Cc2ccccc2)C1=O (configuration not stated) | 72 to 74
NC1CCN(c2ccccc2)C1=O (configuration not stated) | 66 to 68
O=C(Nc1cc(Cl)ccc1Cl)C1CCCCN1 (configuration not stated) | 127 to 129
COc1ccc(-c2nc(C(=O)O)cs2)cc1OC | 204 to 206
NC(Cc1c[nH]c2cc(F)ccc12)C(=O)O (configuration not stated) | 283 to 285

Structure (SMILES) | melting point [°C]
NCCN1C(=O)C2C3C=CC(C3)C2C1=O (configuration not stated) | 69 to 71
Cc1ccc(Sc2nc(=N)s[nH]2)cc1 | 181 to 183
CC(c1ccc(F)cc1F)S(N)(=O)=O (configuration not stated) | 93 to 95
Nc1c(F)cc(Cl)cc1F | 44 to 46
NC(=O)Cc1csc(-c2ccco2)n1 | 125 to 127
COC(=O)c1cccc(C(N)=S)c1 | 137 to 139
O=Cc1ccc([N+](=O)[O-])cc1F | 84 to 86
NC(COc1ccc(Cl)cc1Cl)=NO | 141 to 144
COC(=O)c1cc2ccccc2c(Cl)n1 | 110 to 112
COC(=O)c1cc(I)cc(S(=O)(=O)Cl)c1 | 67 to 69
Cc1ccc(CNc2ccc3[nH]c(=O)[nH]c3c2)cc1 | 271 to 273
NS(=O)(=O)c1cnn(-c2ccccc2)c1 | 196 to 198
NC(=S)/C(=C/c1ccccc1O)C(=O)O | 243 to 245
Cc1ccc(S(=O)(=O)NC(CCC(N)=O)C(=O)O)cc1C (configuration not stated) | 171 to 173
O=C(O)C1CNCc2ccccc21 (configuration not stated) | 233 to 235
NC(=O)c1ccc2c(N)ncnc2c1 | 359 to 361
Cc1oc(-c2cccs2)nc1CCl | 65 to 67
NCc1ccc(CN2CCC(O)CC2)cc1 | 128 to 130
O=C(NO)c1occc1CSc1ccccc1 | 99 to 101
CN1CCN(S(=O)(=O)c2cccc(C(=O)O)c2)CC1 | 230 to 232
O=C(O)c1ccc(-c2ccc([N+](=O)[O-])cc2Cl)o1 | 251 to 253
O=C(Nc1sc2ccccc2c1Cl)OCC(F)(F)F | 95 to 97
NS(=O)(=O)NCc1ccccn1 | 138 to 140
O=C(O)c1cccc(S(=O)(=O)N2CCc3ccccc3C2)c1 | 55 to 58
